In test [1] the target is T1, full-length human PHD1 (Homo sapiens, UniProt Q96KS0).
T1 construct: FLAG (N); purchased Active Motif 81064; host or cells: baculovirus expression system
The experiment in a line: TR-FRET assay, enzymatic IC50 against PHD1. On IC50: 15 nM PHD1. The format is biochemical. The source says: PHD1 was expressed in a baculovirus expression system as the full-length protein (NCBI accession number NP_542770.2) with an N-terminal FLAG tag (molecular weight 44.9 kDa).

Test [2] concerns the target full-length human PHD2 (Homo sapiens, UniProt Q9GZT9). The experiment in a line: TR-FRET assay, enzymatic IC50 against PHD2.
Source text: Time-resolved fluorescence resonance energy transfer (TR-FRET) assay was utilized to determine the enzymatic half maximal inhibitory concentration (IC50) value of PHD inhibitors against the full-length human prolyl-4-hydroxylase domain (PHD) enzymes, PHD1, PHD2, and PHD3. The TR-FRET assay was developed based on the specific binding of hydroxylated HIF-1α peptide with the complex formed by VHL, EloB and EloC (VBC), to generate a fluorescent signal. Terbium (Tb)-Donor (monoclonal antibody anti-6His-Tb-cryptate Gold) and D2-acceptor (streptavidin [SA]-D2) of TR-FRET are linked to the VBC complex and to HIF-1α peptide, respectively. The VBC complex binds specifically to the HIF-1α peptide when it is hydroxylated, allowing energy transfer from TR-FRET donor to acceptor (FIG. 1). […] The plates were incubated for 30 minutes at room temperature without rotation. […] TR-FRET assays were performed in triplicate at each concentration of compound and the assays were repeated independently three times.

Each structure is given as a SMILES string. pIC50: −log10 of the molar value. A value given as a limit tells only on which side of the number the result lay.

full-length human PHD2, sequence (Q9GZT9 whole entry): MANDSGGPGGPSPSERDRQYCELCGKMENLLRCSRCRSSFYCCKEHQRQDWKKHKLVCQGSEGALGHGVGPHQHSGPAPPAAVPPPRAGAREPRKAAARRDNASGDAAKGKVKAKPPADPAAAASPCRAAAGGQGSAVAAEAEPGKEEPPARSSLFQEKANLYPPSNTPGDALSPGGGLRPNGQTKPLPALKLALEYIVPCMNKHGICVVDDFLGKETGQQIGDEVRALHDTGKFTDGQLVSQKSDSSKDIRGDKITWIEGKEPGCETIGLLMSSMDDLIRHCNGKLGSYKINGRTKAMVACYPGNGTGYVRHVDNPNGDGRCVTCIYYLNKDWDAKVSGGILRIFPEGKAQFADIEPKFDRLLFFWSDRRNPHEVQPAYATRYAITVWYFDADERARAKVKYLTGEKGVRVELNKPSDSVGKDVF
T1 sequence (Q96KS0 whole entry): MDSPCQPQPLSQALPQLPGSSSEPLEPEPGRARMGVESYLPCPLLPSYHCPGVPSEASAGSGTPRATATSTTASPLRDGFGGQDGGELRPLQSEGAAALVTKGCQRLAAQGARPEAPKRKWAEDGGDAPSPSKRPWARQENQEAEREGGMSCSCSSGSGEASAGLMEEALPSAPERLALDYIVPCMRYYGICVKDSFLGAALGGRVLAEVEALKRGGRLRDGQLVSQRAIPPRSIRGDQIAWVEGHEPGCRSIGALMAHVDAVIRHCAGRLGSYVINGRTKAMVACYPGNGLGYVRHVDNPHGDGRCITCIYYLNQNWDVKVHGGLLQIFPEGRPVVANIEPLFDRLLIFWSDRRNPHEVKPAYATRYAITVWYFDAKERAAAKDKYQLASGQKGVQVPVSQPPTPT

For `O=C(O)CCC(=O)C(=O)O` [Compound 2-OG, 2-oxoglutarate, reference compound], the Km in test [1] (read-out: Km of 2-OG for PHD1) came out at 0.0127 µM.
Turning to `Cc1nn(-c2ccc(P(C)(C)=O)cn2)c(O)c1-c1ccc(C#N)cc1` [Compound 14, 4-(1-(5-(dimethylphosphoryl)pyridin-2-yl)-5-hydroxy-3-methyl-1H-pyrazol-4-yl)benzonitrile], the negative-log IC50 (pIC50) in test [2] and in test [1] was more than 7.00 each time.
In the case of `Cc1nn(-c2ccc([S@@](C)(=N)=O)cn2)c(O)c1-c1ccc(C#N)cc1` [Compound 16, (S)-4-(5-hydroxy-3-methyl-1-(5-(S-methylsulfonimidoyl)pyridin-2-yl)-1H-pyrazol-4-yl)benzonitrile], the pIC50 in test [2] and in test [1] was more than 7.00 in each case.
On to `Cc1nn(-c2ccc([S@](C)(=N)=O)cn2)c(O)c1-c1ccc(C#N)cc1` [Compound 17, (R)-4-(5-hydroxy-3-methyl-1-(5-(S-methylsulfonimidoyl)pyridin-2-yl)-1H-pyrazol-4-yl)benzonitrile], for which the pIC50 in test [2] and in test [1] was more than 7.00 in each case.
Regarding `Cc1nn(-c2ccc(S(C)(=N)=O)cn2)c(O)c1-c1ccc(Cl)cc1` (centres unmarked) [Compound 18, (6-(4-(4-chlorophenyl)-5-hydroxy-3-methyl-1H-pyrazol-1-yl)pyridin-3-yl)(imino)(methyl)-λ^6-sulfanone], the pIC50 in test [2] and in test [1] was more than 7.00 throughout.
`Cc1nn(-c2ccc(S(=N)(=O)C(C)C)cn2)c(O)c1-c1ccc(C#N)cc1` (centres unmarked) [Compound 19, 4-(5-hydroxy-3-methyl-1-(5-(propan-2-ylsulfonimidoyl)pyridin-2-yl)-1H-pyrazol-4-yl)benzonitrile]: the negative logarithm of the IC50 (pIC50) in test [2] and in test [1] was more than 7.00 throughout.
With `Cc1nn(-c2ccc(S(=N)(=O)c3ccccc3)cn2)c(O)c1-c1ccc(C#N)cc1` (centres unmarked) [Compound 20, 4-(5-hydroxy-3-methyl-1-(5-(phenylsulfonimidoyl)pyridin-2-yl)-1H-pyrazol-4-yl)benzonitrile], the pIC50 in test [2] and in test [1] was more than 7.00 in each case.
As to `CCS(=N)(=O)c1ccc(-n2nc(C)c(-c3ccc(C#N)cc3)c2O)nc1` (centres unmarked) [Compound 21, 4-(5-hydroxy-3-methyl-1-(5-(S-ethylsulfonimidoyl)pyridin-2-yl)-1H-pyrazol-4-yl)benzonitrile], the pIC50 in test [2] and in test [1] was more than 7.00 each time.
Regarding `Cc1nn(-c2ccc([S@+](C)[O-])cn2)c(O)c1-c1ccc(C#N)cc1` [Compound 22, (S)-4-(5-hydroxy-3-methyl-1-(5-(methylsulfinyl)pyridin-2-yl)-1H-pyrazol-4-yl)benzonitrile], the pIC50 in test [2] and in test [1] was more than 7.00 throughout.
Consider `Cc1nn(-c2ccc([S@@+](C)[O-])cn2)c(O)c1-c1ccc(C#N)cc1` [Compound 23, (R)-4-(5-hydroxy-3-methyl-1-(5-(methylsulfinyl)pyridin-2-yl)-1H-pyrazol-4-yl)benzonitrile], for which the pIC50 in test [2] and in test [1] was more than 7.00 throughout.
Take `Cc1nn(-c2ccc(S(=N)(N)=O)cn2)c(O)c1-c1ccc(C#N)cc1` (centres unmarked) [Compound 24, 6-(4-(4-cyanophenyl)-5-hydroxy-3-methyl-TH-pyrazol-1-yl)pyridine-3-sulfonimidamide]: the pIC50 in test [2] and in test [1] was more than 7.00 throughout.
In the case of `Cc1nn(-c2ccc(-c3cn(C)nn3)cn2)c(O)c1-c1ccc(C#N)cc1` [Compound 54, 4-(5-hydroxy-3-methyl-1-(5-(1-methyl-1H-1,2,3-triazol-4-yl)pyridin-2-yl)-1H-pyrazol-4-yl)benzonitrile], the pIC50 in test [1] was more than 7.00.
As to `Cc1cc(-n2nc(C)c(-c3ccc(C#N)cc3)c2O)ncc1S(=O)(=O)N1CCCC1` [Compound 72, 4-(5-hydroxy-3-methyl-1-(4-methyl-5-(pyrrolidin-1-ylsulfonyl)pyridin-2-yl)-1H-pyrazol-4-yl)benzonitrile], the negative logarithm of the IC50 (pIC50) in test [1] was more than 7.00.

These data come from patent US20230159489A1, “PHD INHIBITOR COMPOUNDS, COMPOSITIONS, AND USE” (Akebia Therapeutics, Inc., priority 2020, published 2023).
